Assays:
ADAMTS4 = biological target: T1, ADAMTS4 (Homo sapiens, UniProt O75173); test: Selectivity assay for ADAMTS-7 modulators (FRET), ADAMTS4; format: biochemical; conditions: 50 nM enzyme (R&D 4307-AD), 1 μM Dabcyl/Edans FRET substrate, 120 min at 32° C.
T1 construct: purchased R&D 4307-AD
T1 sequence (O75173 213-685 limits assumed): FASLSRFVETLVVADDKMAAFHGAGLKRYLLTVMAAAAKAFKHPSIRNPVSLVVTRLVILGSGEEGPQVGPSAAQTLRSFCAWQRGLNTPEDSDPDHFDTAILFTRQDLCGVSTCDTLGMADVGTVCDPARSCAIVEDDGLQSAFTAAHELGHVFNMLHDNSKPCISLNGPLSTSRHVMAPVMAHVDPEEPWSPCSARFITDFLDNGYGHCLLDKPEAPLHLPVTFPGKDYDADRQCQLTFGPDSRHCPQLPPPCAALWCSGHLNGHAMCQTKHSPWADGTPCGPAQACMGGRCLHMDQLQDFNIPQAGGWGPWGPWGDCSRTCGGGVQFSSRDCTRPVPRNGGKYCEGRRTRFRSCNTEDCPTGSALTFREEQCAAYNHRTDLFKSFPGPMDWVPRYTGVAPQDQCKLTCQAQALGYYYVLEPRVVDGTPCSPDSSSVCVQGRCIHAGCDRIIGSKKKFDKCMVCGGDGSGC
Experimental: The respective enzyme (see table 2 below) was diluted in reaction buffer (50 mM Tris, 2.5 μM ZnCl2, 0.05% BSA, 0.001% Brij, pH 7.5 for ADAM17; 50 mM Tris 7.5, 150 mM NaCl, 10 mM CaCl2, 0.05% Brij for all other enzymes) to the respective concentration and 25 μl were transferred into each well of a 384-well white microtiter plate (Greiner Bio One 781075). 1 μl test compound solution (dissolved in DMSO, at the corresponding concentration) or pure DMSO as a control was added per well. The enzymatic reaction was initiated by addition of 25 μl of the respective concentration of the respective FRET substrate (see table 2 below) in reaction buffer. The microtiter plate was incubated for 120 min at the temperature of 32° C. The increase of fluorescence intensity was measured in appropriate fluorescence plate reader (e.g. TECAN Ultra) using the respective wavelengths for excitation and emission. IC50 values were calculated from percentage of inhibition of enzyme activity as a function of test compound concentration.

[1] = biological target: T2, Purified recombinant ADAMTS-7 (rat prodomain/human catalytic domain, SEQ ID No. 01 or 02) (Homo sapiens, UniProt Q9UKP4); test: Assay for ADAMTS-7 enzymatic activity (FRET substrate cleavage); format: biochemical; conditions: FRET substrate SEQ ID No. 11, 120 min at 32° C.; read-out: ADAMTS7-IC50
T2 construct: rat ADAMTS-7 signal peptide + prodomain (rat 1-217, Q1EHB3) (N); 2xStrep tag (C); 6xHis tag (C); made in house; host or cells: Expi293 cells
T2 sequence (Q9UKP4 237-537): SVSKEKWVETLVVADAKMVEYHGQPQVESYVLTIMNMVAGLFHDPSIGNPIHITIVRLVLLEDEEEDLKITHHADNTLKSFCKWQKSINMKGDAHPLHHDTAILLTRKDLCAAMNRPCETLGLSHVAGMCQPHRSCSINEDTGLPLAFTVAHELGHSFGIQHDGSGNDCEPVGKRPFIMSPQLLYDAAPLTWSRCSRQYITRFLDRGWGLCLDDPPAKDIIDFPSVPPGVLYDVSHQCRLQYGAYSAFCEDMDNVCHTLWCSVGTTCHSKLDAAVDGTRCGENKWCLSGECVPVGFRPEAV
Experimental: Purified recombinant ADAMTS-7 (as of SEQ ID No. 01 or SEQ ID No. 02) was diluted in reaction buffer (20 mM HEPES pH 8.0, 150 mM NaCl, 5 mM CaCl2, 0.004% Brij, 10 μM ZnCl2) fora concentration of approximately 20 nM. 25 μl of the solution were transferred into each well of a 384-well white microtiter plate (Greiner Bio-One 781075) and 1 μl test compound solution (modulator/inhibitor dissolved in DMSO, at the corresponding concentration) or pure DMSO as a control were added per well. […] Amino acids […] are derived from Thrombospondin-1 sequence (275-289). An additional carboxyl glutamic acid was added after the QXL520 quencher to increase substrate solubility. The microtiter plate was incubated for 120 min at the temperature of 32° C. The increase of fluorescence intensity was measured in appropriate fluorescence plate reader (e.g. TECAN Ultra) using excitation wavelength of 485 nm and emission wavelength of 520 nm. IC50 values were calculated from percentage of inhibition of ADAMTS-7 activity as a function of test compound concentration.

| SMILES | IC50 (ADAMTS4) [nM] | IC50 [1] [nM] |
| --- | --- | --- |
| Cc1scnc1C1(CNC(=O)c2cnn(-c3ccc(F)cc3)n2)NC(=O)NC1=O (racemic) [Example 100, rac-2-(4-fluorophenyl)-N-{[4-(5-methyl-1,3-thiazol-4-yl)-2,5-dioxoimidazolidin-4-yl]methyl}-2H-1,2,3-triazole-4-carboxamide] | 680 | 8 |
| O=C1NC(=O)C(CNC(=O)c2cnn(-c3cccc(F)c3)n2)(c2nccs2)N1 (racemic) [Example 108, rac-N-{[2,5-dioxo-4-(1,3-thiazol-2-yl)imidazolidin-4-yl]methyl}-2-(3-fluorophenyl)-2H-1,2,3-triazole-4-carboxamide] | 600 | 12 |
| O=C1NC(=O)C(CNC(=O)c2cnn(-c3ccc(Cl)c(F)c3)n2)(c2nccs2)N1 (racemic) [Example 109, rac-2-(4-chloro-3-fluorophenyl)-N-{[2,5-dioxo-4-(1,3-thiazol-2-yl)imidazolidin-4-yl]methyl}-2H-1,2,3-triazole-4-carboxamide] | 1100 | 19 |
| O=C1NC(=O)C(CNC(=O)c2cnn(-c3ccc(F)c(Cl)c3)n2)(c2nccs2)N1 (racemic) [Example 111, rac-2-(3-chloro-4-fluorophenyl)-N-{[2,5-dioxo-4-(1,3-thiazol-2-yl)imidazolidin-4-yl]methyl}-2H-1,2,3-triazole-4-carboxamide] | 1200 | 35 |
| O=C1NC(=O)C(CNC(=O)c2cnn(-c3ccc(F)cc3)n2)(c2nccs2)N1 (racemic) [Example 113, rac-N-{[2,5-dioxo-4-(1,3-thiazol-2-yl)imidazolidin-4-yl]methyl}-2-(4-fluorophenyl)-2H-1,2,3-triazole-4-carboxamide] | 2400 | 39 |
| O=C1NC(=O)C(CNC(=O)c2cnn(-c3ccc(F)cc3F)n2)(c2nccs2)N1 (racemic) [Example 115, rac-2-(2,4-difluorophenyl)-N-{[2,5-dioxo-4-(1,3-thiazol-2-yl)imidazolidin-4-yl]methyl}-2H-1,2,3-triazole-4-carboxamide] | 6600 | 87 |
| CC(C)C1(CNC(=O)c2cnn(-c3cccc(F)c3)n2)NC(=O)NC1=O (racemic) [Example 118, rac-2-(3-fluorophenyl)-N-[(4-isopropyl-2,5-dioxoimidazolidin-4-yl)methyl]-2H-1,2,3-triazole-4-carboxamide] | 4500 | 46 |
| CC(C)C1(CNC(=O)c2cnn(-c3cccc(C#N)c3)n2)NC(=O)NC1=O (racemic) [Example 120, rac-2-(3-cyanophenyl)-N-[(4-isopropyl-2,5-dioxoimidazolidin-4-yl)methyl]-2H-1,2,3-triazole-4-carboxamide] | 6000 | 170 |
| CC(C)C1(CNC(=O)c2cnn(-c3ccc(F)c(F)c3)n2)NC(=O)NC1=O (racemic) [Example 122, rac-2-(3,4-difluorophenyl)-N-[(4-isopropyl-2,5-dioxoimidazolidin-4-yl)methyl]-2H-1,2,3-triazole-4-carboxamide] | 2500 | 11 |
| CC(C)C1(CNC(=O)c2cnn(-c3ccc(Cl)c(F)c3)n2)NC(=O)NC1=O (racemic) [Example 124, rac-2-(4-chloro-3-fluorophenyl)-N-[(4-isopropyl-2,5-dioxoimidazolidin-4-yl)methyl]-2H-1,2,3-triazole-4-carboxamide] | 2800 | 13 |
| Cn1nccc1C1(CNC(=O)c2cnn(-c3ccc(F)cc3)n2)NC(=O)NC1=O (racemic) [Example 127, rac-2-(4-fluorophenyl)-N-{[4-(1-methyl-1H-pyrazol-5-yl)-2,5-dioxoimidazolidin-4-yl]methyl}-2H-1,2,3-triazole-4-carboxamide] | 2400 | 10 |
| O=C1NC(=O)C(CNC(=O)c2cnn(-c3ccc(F)cc3)n2)(c2ccnn2C(F)F)N1 (racemic) [Example 128, rac-N-({4-[1-(difluoromethyl)-1H-pyrazol-5-yl]-2,5-dioxoimidazolidin-4-yl}methyl)-2-(4-fluorophenyl)-2H-1,2,3-triazole-4-carboxamide] | 2400 | 29 |
| CCn1nccc1C1(CNC(=O)c2cnn(-c3ccc(F)cc3)n2)NC(=O)NC1=O (racemic) [Example 130, rac-N-{[4-(1-ethyl-1H-pyrazol-5-yl)-2,5-dioxoimidazolidin-4-yl]methyl}-2-(4-fluorophenyl)-2H-1,2,3-triazole-4-carboxamide] | 2800 | 14 |
| Cc1ncsc1C1(CNC(=O)c2cnn(-c3ccc(F)cc3)n2)NC(=O)NC1=O (racemic) [Example 131, rac-2-(4-fluorophenyl)-N-{[4-(4-methyl-1,3-thiazol-5-yl)-2,5-dioxoimidazolidin-4-yl]methyl}-2H-1,2,3-triazole-4-carboxamide] | 2500 | 37 |
| O=C1NC(=O)C(CNC(=O)c2cnn(-c3ccc(F)cc3)n2)(c2ccnn2CC(F)(F)F)N1 (racemic) [Example 133, rac-N-({2,5-dioxo-4-[1-(2,2,2-trifluoroethyl)-1H-pyrazol-5-yl]imidazolidin-4-yl}methyl)-2-(4-fluorophenyl)-2H-1,2,3-triazole-4-carboxamide] | 3200 | 50 |
| O=C1NC(=O)C(CNC(=O)c2cnn(-c3ccc(F)cc3)n2)(c2ncsc2C(F)(F)F)N1 (racemic) [Example 135, rac-N-({2,5-dioxo-4-[5-(trifluoromethyl)-1,3-thiazol-4-yl]imidazolidin-4-yl}methyl)-2-(4-fluorophenyl)-2H-1,2,3-triazole-4-carboxamide] | 6600 | 48 |
| O=C1NC(=O)C(CNC(=O)c2cnn(-c3ccc(F)cc3)n2)(c2ccccc2)N1 (racemic) [Example 139, rac-N-[(2,5-dioxo-4-phenylimidazolidin-4-yl)methyl]-2-(4-fluorophenyl)-2H-1,2,3-triazole-4-carboxamide] | > 50000 | 69 |
| Cn1ccnc1C1(CNC(=O)c2cnn(-c3ccccc3)n2)NC(=O)NC1=O (racemic) [Example 140, rac-N-{[4-(1-methyl-1H-imidazol-2-yl)-2,5-dioxoimidazolidin-4-yl]methyl}-2-phenyl-2H-1,2,3-triazole-4-carboxamide] | 360 | 4 |
| Cn1ccnc1C1(CNC(=O)c2cnn(-c3ccc(F)cc3)n2)NC(=O)NC1=O (racemic) [Example 141, rac-2-(4-fluorophenyl)-N-{[4-(1-methyl-1H-imidazol-2-yl)-2,5-dioxoimidazolidin-4-yl]methyl}-2H-1,2,3-triazole-4-carboxamide] | 320 | 4 |
| Cn1ccnc1C1(CNC(=O)c2cnn(-c3cc(F)c(F)c(F)c3)n2)NC(=O)NC1=O (racemic) [Example 143, rac-N-{[4-(1-methyl-1H-imidazol-2-yl)-2,5-dioxoimidazolidin-4-yl]methyl}-2-(3,4,5-trifluorophenyl)-2H-1,2,3-triazole-4-carboxamide] | 200 | 5 |
